Values after ≈ are worked out from the molar mass of the structure shown. Read-outs that look alike come from different tables or passages of the source.
What was measured:
[1] = test system: human bladder cancer cell T-24; conditions: T-24, MTT
Text: (§1) The purpose of the assay is to evaluate the in vitro cell proliferation inhibition or cytotoxic activity of a tested sample.
(§2) Human breast cancer cells MCF-7 and MDA-MB-231, human hepatoma cells HepG2, human non-small cell lung cancer cells A549, human large cell lung cancer cells H460 and H1299, human renal clear cell adenocarcinoma cell 786-0, human renal cell adenocarcinoma cell 769-P, human glioma cell U251, human glioblastoma cell A172, human tissue lymphoma cell U937, human cervical cancer cell HeLa, human prostate cancer cell PC3, human pancreatic cancer cell PANC-1, human esophageal cancer cell TE-1, human gastric adenocarcinoma cell SGC7901, human colon cancer cell HT-29, human promyelocytic leukemia cell HL-60, human thyroid cancer cell TPC-1, and human bladder cancer cell T-24.
(§3) The inhibition rate of the medicament on tumor cell growth is calculated according to the following formula:
(§4) Tumor cell growth inhibition rate (%)=[A492 (negative control)−A492 (dosing group)]/A492 (negative control)×100%
(§5) And the half-inhibitory concentration (IC50) of the sample is determined therefrom.

[2] = test system: human thyroid cancer cell TPC-1; conditions: TPC-1, MTT
Text: as §1, §2, §3, §4, §5

[3] = test system: transplanted tumor of human non-small cell lung cancer cell H1299
Experimental: (§6) Then cell concentration was adjusted to 1×10^7/ml with matrigel, then each nude mouse was inoculated subcutaneously with 0.2 ml of cells at its right armpit and recorded as the first day of inoculation. When the tumor grows to be greater than or equal to 100 mm^3, the mice were randomly divided into 11 groups with 6 mice in each group: isovaleryl spiramycin I groups with doses of 25, 50 and 100 mg/kg, isovaleryl spiramycin II groups with doses of 25, 50 and 100 mg/kg, and isovaleryl spiramycin III groups with doses of 25, 50 and 100 mg/kg. Each group was continuously administered intragastrically for 30 days with a dose of 20 ml/kg. The mice were sacrificed the next day after drug withdrawal and the indicators were tested. The long diameter and short diameter of the tumor, and the body weight of each mouse were recorded every 3 days from drug administration to nude mouse sacrifice.
(§7) The body weight of the nude mice and the long diameter (a) and short diameter (b) of the transplanted tumor were measured every 3 days, and the tumor volume (v), relative tumor volume (RTV) and relative tumor proliferation rate (T/C) are calculated respectively according to the following formulas, wherein V=a×b^2/2; RTV=V/V0 (V0 is the tumor volume before administration, V is the tumor volume before sacrifice), and T/C (%)=treatment group RTV/model control group RTV×100%.
(§8) Each mouse was weighed and sacrificed. After the tumor was completely stripped off from the body of the mouse, the non-tumor tissues such as blood stains and fat were removed to weigh the tumor and calculate the tumor growth inhibition rate. The average tumor weight of each group of mice is used as an indicator of efficacy. Tumor growth inhibition rate (%)=(1−the average tumor weight of the treatment group/the average tumor weight of the model group)×100%.

[4] = test system: transplanted tumor of human bladder cancer cell T-24; assay: T-24 transplanted tumor in nude mice; conditions: for Tumor Volume (mm3) (d30): d 30
Experimental: as §6, §7, §8

[5] = test system: transplanted tumor of human breast cancer cell MCF-7; assay: MCF-7 transplanted tumor in nude mice
Experimental: as §6, with “group: a model group, a cyclophosphamide group,” for “group:”
as §7, §8

[6] = H1299, 25 mg/kg (low dose) i.g. 30 days
[7] = H1299, 50 mg/kg (medium dose) i.g. 30 days
[8] = H1299, 100 mg/kg (high dose) i.g. 30 days
[9] = T-24, high dose (100 mg/kg in method) i.g. 30 days
[10] = T-24, low dose (25 mg/kg in method) i.g. 30 days
[11] = T-24, medium dose (50 mg/kg in method) i.g. 30 days
[12] = MCF-7, 25 mg/kg (low dose) i.g. 30 days
[13] = MCF-7, 50 mg/kg (medium dose) i.g. 30 days
[14] = MCF-7, 100 mg/kg (high dose) i.g. 30 days

- IC50 [1]: 39.85 ± 3.26 µg/mL (≈ 41.1 µM)
- IC50 [2]: 45.37 ± 2.90 µg/mL (≈ 46.8 µM)
- mouse weight compared with the model group ([3]; mouse, in vivo): no significant changes
- mouse weight compared with the model group ([4]; mouse, in vivo): no significant changes
- mouse weight compared with the model group ([5]; mouse, in vivo): no significant changes
SMILES: COC1C(OC(C)=O)CC(=O)OC(C)CC=CC=CC(OC2CCC(N(C)C)C(C)O2)C(C)CC(CC=O)C1OC1OC(C)C(OC2CC(C)(O)C(OC(=O)CC(C)C)C(C)O2)C(N(C)C)C1O (stereo not drawn) [Isovaleryl spiramycin II, isovaleryl spiramycin II]
- Inhibition Rate (tumor growth inhibition rate) [3, 6]: 17.32%
- Relative Tumor Proliferation Rate (T/C) [3, 6]: 83.01%
- Relative Tumor Volume (RTV) [3, 6]: 10.64 ± 0.92
- Tumor Volume (d 1) [3, 6]: 139.13 ± 12.26 mm3
- Tumor Volume (d 30) [3, 6]: 1474.57 ± 104.54 mm3
- Tumor Weight [3, 6]: 1.44 ± 0.29 g
- Inhibition Rate (tumor growth inhibition rate) [3, 7]: 44.21%
- Relative Tumor Proliferation Rate (T/C) [3, 7]: 46.94%
- Relative Tumor Volume (RTV) [3, 7]: 6.02 ± 1.07
- Tumor Volume (d 1) [3, 7]: 138.94 ± 20.16 mm3
- Tumor Volume (d 30) [3, 7]: 821.57 ± 90.36 mm3
- Tumor Weight [3, 7]: 0.97 ± 0.16 g
- Inhibition Rate (tumor growth inhibition rate) [3, 8]: 58.37%
- Relative Tumor Proliferation Rate (T/C) [3, 8]: 36.86%
- Relative Tumor Volume (RTV) [3, 8]: 4.72 ± 1.57
- Tumor Volume (d 1) [3, 8]: 136.94 ± 14.60 mm3
- Tumor Volume (d 30) [3, 8]: 634.05 ± 180.18 mm3
- Tumor Weight [3, 8]: 0.73 ± 0.25 g
- tumor volume and relative tumor volume compared with the model group ([3]; H1299, low, medium and high doses, P<0.05): significantly lower
- Relative Tumor Proliferation Rate (T/C) [4, 9]: 46.70%
- tumor growth inhibition rate [4, 9]: 59.25%
- Relative Tumor Proliferation Rate (T/C) [4, 10]: 81.39%
- tumor growth inhibition rate [4, 10]: 15.57%
- tumor volume and relative tumor volume compared with the model group ([4]; T-24, low, medium and high doses, P<0.05): significantly lower
- Relative Tumor Proliferation Rate (T/C) [4, 11]: 64.89%
- tumor growth inhibition rate [4, 11]: 41.99%
- Inhibition Rate (%) ([4]; dose 25 mg/kg): 15.57%
- Relative Tumor Proliferation Rate (T/C) ([4]; dose 25 mg/kg): 81.39%
- Relative Tumor Volume (RTV) ([4]; dose 25 mg/kg): 10.75 ± 1.34
- Tumor Weight ([4]; dose 25 mg/kg): 1.58 ± 0.28 g
- Tumor Volume (mm3) (d 1) ([4]; dose 25 mg/kg): 132.64 ± 19.75 mm3
- Tumor Volume (mm3) (d30) ([4]; dose 25 mg/kg): 1414.36 ± 188.91 mm3
- Inhibition Rate (%) ([4]; dose 50 mg/kg): 41.99%
- Relative Tumor Proliferation Rate (T/C) ([4]; dose 50 mg/kg): 64.89%
- Relative Tumor Volume (RTV) ([4]; dose 50 mg/kg): 8.57 ± 1.31
- Tumor Weight ([4]; dose 50 mg/kg): 1.09 ± 0.42 g
- Tumor Volume (mm3) (d 1) ([4]; dose 50 mg/kg): 133.67 ± 5.07 mm3
- Tumor Volume (mm3) (d30) ([4]; dose 50 mg/kg): 1142.42 ± 146.91 mm3
- Inhibition Rate (%) ([4]; dose 100 mg/kg): 59.25%
- Relative Tumor Proliferation Rate (T/C) ([4]; dose 100 mg/kg): 46.70%
- Relative Tumor Volume (RTV) ([4]; dose 100 mg/kg): 6.17 ± 1.26
- Tumor Weight ([4]; dose 100 mg/kg): 0.76 ± 0.19 g
- Tumor Volume (mm3) (d 1) ([4]; dose 100 mg/kg): 133.57 ± 18.08 mm3
- Tumor Volume (mm3) (d30) ([4]; dose 100 mg/kg): 809.94 ± 131.43 mm3
- Body Weight (g) (d1) ([4]; mouse, in vivo, 25 mg/kg): 19.91 ± 0.28 g
- Body Weight (g) (d30) ([4]; mouse, in vivo, 25 mg/kg): 24.81 ± 2.42 g
- Body Weight (g) (d1) ([4]; mouse, in vivo, 50 mg/kg): 19.74 ± 0.82 g
- Body Weight (g) (d30) ([4]; mouse, in vivo, 50 mg/kg): 25.84 ± 0.73 g
- Body Weight (g) (d1) ([4]; mouse, in vivo, 100 mg/kg): 19.51 ± 0.50 g
- Body Weight (g) (d30) ([4]; mouse, in vivo, 100 mg/kg): 25.92 ± 1.35 g
- Inhibition Rate (tumor growth inhibition rate) [5, 12]: 20.55%
- Relative Tumor Proliferation Rate (T/C) [5, 12]: 79.23%
- Relative Tumor Volume (RTV) [5, 12]: 13.87 ± 1.53
- Tumor Volume (d 1) [5, 12]: 104.64 ± 10.69 mm3
- Tumor Volume (d 30) [5, 12]: 1450.36 ± 218.20 mm3
- Tumor Weight [5, 12]: 2.16 ± 0.51 g
- Inhibition Rate (tumor growth inhibition rate) [5, 13]: 41.72%
- Relative Tumor Proliferation Rate (T/C) [5, 13]: 60.58%
- Relative Tumor Volume (RTV) [5, 13]: 10.60 ± 1.10
- Tumor Volume (d 1) [5, 13]: 105.81 ± 11.20 mm3
- Tumor Volume (d 30) [5, 13]: 1113.42 ± 71.14 mm3
- Tumor Weight [5, 13]: 1.58 ± 0.51 g
- Inhibition Rate (tumor growth inhibition rate) [5, 14]: 56.81%
- Relative Tumor Proliferation Rate (T/C) [5, 14]: 44.45%
- Relative Tumor Volume (RTV) [5, 14]: 7.78 ± 1.71
- Tumor Volume (d 1) [5, 14]: 119.69 ± 14.63 mm3
- Tumor Volume (d 30) [5, 14]: 914.69 ± 130.26 mm3
- Tumor Weight [5, 14]: 1.17 ± 0.47 g
- Relative Tumor Proliferation Rate (T/C) ([5]; MCF-7, 100 mg/kg (high dose) i.g. 30 days, listed as isovaleryl spiramycin II): 44.44%
- tumor volume and relative tumor volume compared with the model group ([5]; MCF-7, low, medium and high doses, P<0.05): significantly lower
